Assays:
picK protein = biological target: T1, picK protein (Streptomyces venezuelae, UniProt O87605, G416S); assay: hydroxylase activity of the picK protein (conversion of narbomycin to picromycin); format: biochemical; details: crude supernatant of E. coli BL21-DE3/pKOS023-61, 20 nmol narbomycin, 105 minutes at 30° C., by ELSD peak area
T1 construct: made in house; host or cells: E. coli BL21-DE3
Description: Plasmid pKOS023-61 was transformed into E. coli BL21-DE3. Successful transformants were grown in LB-containing carbenicillin (100 μg/ml) at 37° C. to an OD600 of 0.6. Isopropyl-beta-D-thiogalactopyranoside (IPTG) was added to a final concentration of 1 mM, and the cells were grown for an additional 3 hours before harvesting. The cells were collected by centrifugation and frozen at −80° C. A control culture of BL21-DE3 containing the vector plasmid pET21c (Invitrogen) was prepared in parallel.
The frozen BL21-DE3/pKOS023-61 cells were thawed, suspended in […] of cold cell disruption buffer (5 mM imidazole, 500 mM NaCl, 20 mM Tris/HCl, pH 8.0) and sonicated to facilitate lysis. Cellular debris and supernatant were separated by centrifugation and subjected to SDS-PAGE on 10-15% gradient gels, with Coomassie Blue staining, using a Pharmacia Phast Gel Electrophoresis system. The soluble crude extract from BL21-DE3/pKOS023-61 contained a Coomassie stained band of Mr˜46 kDa, which was absent in the control strain BL21-DE3/pET21c.
The hydroxylase activity of the picK protein was assayed as follows. […] Half of the reaction mixture was loaded onto an HPLC, and the effluent was analyzed by evaporative light scattering (ELSD) and mass spectrometry. […]

[1] = biological target: T2, 6-hydroxylase encoded by eryF (Saccharopolyspora erythraea, UniProt Q00441); assay: in vitro 6-hydroxylation by the 6-hydroxylase encoded by eryF; format: biochemical; details: 100 pmol hydroxylase, 10 nmol substrate, 90 minutes at 30° C., based on relative total ion counts
T2 construct: made in house; host or cells: E. coli
T2 sequence (Q00441 1-404): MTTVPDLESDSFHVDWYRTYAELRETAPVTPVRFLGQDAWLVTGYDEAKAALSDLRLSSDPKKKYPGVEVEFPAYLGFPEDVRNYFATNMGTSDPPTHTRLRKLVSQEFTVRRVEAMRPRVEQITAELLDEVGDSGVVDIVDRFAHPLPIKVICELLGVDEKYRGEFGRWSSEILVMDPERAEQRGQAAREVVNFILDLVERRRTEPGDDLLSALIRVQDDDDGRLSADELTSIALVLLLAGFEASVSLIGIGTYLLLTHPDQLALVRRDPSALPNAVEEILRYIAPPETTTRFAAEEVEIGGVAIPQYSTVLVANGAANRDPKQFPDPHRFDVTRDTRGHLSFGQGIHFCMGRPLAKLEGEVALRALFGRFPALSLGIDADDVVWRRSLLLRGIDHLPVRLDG
Description: The 6-hydroxylase encoded by eryF was expressed in E. coli, and partially purified. The hydroxylase (100 pmol in 10 μL) was added to a reaction mixture (100 μl total volume) containing 50 mM Tris/HCl (pH 7.5), 20 μM spinach ferredoxin, 0.025 Unit of spinach ferredoxin:NADP^+ oxidoreductase, 0.8 Unit of glucose-6-phosphate dehydrogenase, 1.4 mM NADP^+, 7.6 mM glucose-6-phosphate, and 10 nmol 6-deoxyerythronolide B. The reaction was allowed to proceed for 90 minutes at 30° C. Half of the reaction mixture was loaded onto an HPLC, and the effluent was analyzed by mass spectrometry. The production of erythronolide B as evidenced by a new peak eluting earlier in the gradient and showing [M+H]^+=401. Conversion was estimated at 50% based on relative total ion counts.

| Compound | conversion of narbomycin to picromycin (picK protein) | conversion of 6-deoxyerythronolide B to erythronolide B [1] [%] |
| --- | --- | --- |
| CC[C@H]1OC(=O)[C@H](C)C(=O)[C@H](C)[C@@H](O[C@@H]2O[C@H](C)C[C@H](N(C)C)[C@H]2O)[C@@H](C)C[C@@H](C)C(=O)/C=C/[C@H]1C [narbomycin] | greater than 90% |  |
| CC[C@H]1OC(=O)[C@H](C)[C@@H](O)[C@H](C)[C@@H](O)[C@@H](C)C[C@@H](C)C(=O)[C@H](C)[C@@H](O)[C@H]1C [6-deoxyerythronolide B] |  | ~50 |
